From US12643910B2, “Substituted pyrazolo[3,4-b]pyridines as ectonucleotide pyrophosphatase/phosphodiesterase 1 (ENPP1) modulators” (SANFORD BURNHAM PREBYS MEDICAL DISCOVERY INSTITUTE, priority 2019, dated 2026)

How the values were obtained:
human ENPP1 = molecular target: T1, human ENPP1 (Homo sapiens, UniProt P22413); experiment: ENPP1 assay with ATP substrate (Transcreener AMP2/GMP2 TR-FRET); type: biochemical; conditions: 1 hour at room temperature
T1 construct: made in house
T1 sequence (P22413 1-925): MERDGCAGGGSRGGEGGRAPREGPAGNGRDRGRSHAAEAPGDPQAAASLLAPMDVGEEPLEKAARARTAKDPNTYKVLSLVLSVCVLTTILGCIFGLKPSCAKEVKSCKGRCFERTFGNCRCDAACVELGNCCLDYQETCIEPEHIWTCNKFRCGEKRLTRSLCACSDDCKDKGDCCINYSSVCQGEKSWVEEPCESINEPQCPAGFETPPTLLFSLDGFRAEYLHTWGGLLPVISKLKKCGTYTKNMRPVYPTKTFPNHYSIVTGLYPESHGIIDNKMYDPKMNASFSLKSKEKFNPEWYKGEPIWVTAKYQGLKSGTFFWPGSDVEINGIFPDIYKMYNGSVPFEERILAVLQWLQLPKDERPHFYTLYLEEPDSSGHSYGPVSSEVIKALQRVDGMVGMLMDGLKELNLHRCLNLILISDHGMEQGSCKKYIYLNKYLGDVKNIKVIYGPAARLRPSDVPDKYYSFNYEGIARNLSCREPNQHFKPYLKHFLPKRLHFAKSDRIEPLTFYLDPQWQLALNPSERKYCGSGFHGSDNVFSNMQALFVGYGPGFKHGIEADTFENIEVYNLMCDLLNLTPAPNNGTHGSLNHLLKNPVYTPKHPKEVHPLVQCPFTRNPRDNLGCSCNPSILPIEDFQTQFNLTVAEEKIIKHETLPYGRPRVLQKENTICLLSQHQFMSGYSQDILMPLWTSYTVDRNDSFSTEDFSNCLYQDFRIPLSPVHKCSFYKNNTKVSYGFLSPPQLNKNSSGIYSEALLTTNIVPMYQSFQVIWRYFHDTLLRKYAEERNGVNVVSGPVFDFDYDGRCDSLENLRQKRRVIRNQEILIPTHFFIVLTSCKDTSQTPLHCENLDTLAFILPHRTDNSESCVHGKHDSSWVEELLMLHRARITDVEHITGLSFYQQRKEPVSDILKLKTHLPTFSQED
Source text: Example B1: ENPP1 Assay with ATP Substrate
Ectonucleotide pyrophosphatase/phosphodiesterase 1 (ENPP1) hydrolyzes ATP, breaking it down into 5′-AMP and pyrophosphate. The 5′-AMP formed from the reaction is detected by Transcreener® AMP2/GMP2 TR-FRET Assay (Bellbrook), containing AMP-tracer (HiLyte 647) and anti-AMP Terbium (Tb) donor. 5′-AMP generated in the reaction competes with AMP-tracer for binding with Anti-AMP Tb donor, and decreases TR-FRET signal.
Different concentrations of ENPP1 inhibitors are added to dry assay plate, followed by 2 μl 300 nM ATP. The reaction is initiated with the addition of 2 μl 8.5 μM human ENPP1 (generated by SBP Protein group). The assay reaction mixture contains a buffer of 50 mM Tris, pH 7.5, 1 mM TCEP, 2 mM MgCl2, 0.005% Tween 20, and 1% DMSO. The reaction is stopped after 1 hour at room temperature by adding 2 μL of 2 nM AMP-tracer and 2 μl of 2 nM Anti-AMP Tb donor in the 50 mM Tris, pH 7.5, buffer containing 20 mM EDTA and 0.1% Prionex. After 2 hour additional incubation at room temperature, the generated signal is measured using BMG Lab PHERASTAR instrument. 100% activity control samples (containing enzyme, substrate, buffer: MAX) and no enzyme control samples (containing substrate and buffer: MIN) are utilized to calculate percent inhibition (%) for each compound concentration well (COMPOUND) as follows.
The IC50 values are determined by fitting the inhibition curves with 2-parameter variable slope model in Graphpad Prism software using percent inhibition vs compound concentration data: […]

ENPP3 = molecular target: T2, ENPP3 (Homo sapiens, UniProt O14638); experiment: ENPP3 Km ATP assay; type: biochemical; conditions: ATP at Km
T2 sequence (O14638 1-875): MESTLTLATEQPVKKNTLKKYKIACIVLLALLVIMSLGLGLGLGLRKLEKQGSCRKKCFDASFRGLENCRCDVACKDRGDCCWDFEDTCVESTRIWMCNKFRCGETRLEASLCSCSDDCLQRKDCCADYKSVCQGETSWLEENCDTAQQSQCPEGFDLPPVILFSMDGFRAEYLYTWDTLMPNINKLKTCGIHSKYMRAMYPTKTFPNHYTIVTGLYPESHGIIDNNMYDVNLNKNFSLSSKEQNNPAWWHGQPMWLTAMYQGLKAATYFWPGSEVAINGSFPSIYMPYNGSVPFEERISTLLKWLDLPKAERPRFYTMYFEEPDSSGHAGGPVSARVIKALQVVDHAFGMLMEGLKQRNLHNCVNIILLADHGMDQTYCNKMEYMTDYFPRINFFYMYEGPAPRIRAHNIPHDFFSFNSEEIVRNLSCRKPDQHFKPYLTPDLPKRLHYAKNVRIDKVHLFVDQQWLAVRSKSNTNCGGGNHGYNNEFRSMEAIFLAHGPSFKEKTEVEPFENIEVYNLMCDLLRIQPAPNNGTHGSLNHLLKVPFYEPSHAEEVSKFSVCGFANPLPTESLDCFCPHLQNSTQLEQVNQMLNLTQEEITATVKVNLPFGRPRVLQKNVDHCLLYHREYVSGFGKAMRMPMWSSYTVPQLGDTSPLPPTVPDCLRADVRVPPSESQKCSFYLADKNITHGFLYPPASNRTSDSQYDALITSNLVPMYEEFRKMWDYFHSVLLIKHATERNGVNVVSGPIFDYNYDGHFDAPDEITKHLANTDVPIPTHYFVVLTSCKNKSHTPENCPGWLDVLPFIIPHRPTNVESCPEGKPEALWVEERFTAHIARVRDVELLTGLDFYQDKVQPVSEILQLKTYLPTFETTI

c1ccc(-c2csc3nc(-c4ccccn4)nc(NCc4ccncc4)c23)cc1 [Example 1, 5-Phenyl-2-(pyridin-2-yl)-N-(pyridin-4-ylmethyl)thieno[2,3-d]pyrimidin-4-amine]
IC50 (human ENPP1): 0.1 to 1 µM | IC50 (ENPP3): > 20 µM

c1ccc(-c2csc3nc(-c4ccccn4)nc(NCc4cccnc4)c23)cc1 [Example 1.1, 5-Phenyl-2-(pyridin-2-yl)-N-(pyridin-3-ylmethyl)thieno[2,3-d]pyrimidin-4-amine]
IC50 (human ENPP1): 1 to 20 µM | IC50 (ENPP3): > 20 µM

COc1ccc(CNc2nc(-c3ccccn3)nc3scc(-c4ccccc4)c23)cc1 [Example 1.3, N-(4-Methoxybenzyl)-5-phenyl-2-(pyridin-2-yl)thieno[2,3-d]pyrimidin-4-amine]
IC50 (human ENPP1): > 20 µM | IC50 (ENPP3): > 20 µM

Fc1ccc(CNc2nc(-c3ccccn3)nc3scc(-c4ccccc4)c23)cc1 [Example 1.4, N-(4-Fluorobenzyl)-5-phenyl-2-(pyridin-2-yl)thieno[2,3-d]pyrimidin-4-amine]
IC50 (human ENPP1): > 20 µM | IC50 (ENPP3): > 20 µM

c1ccc(CNc2nc(-c3ccccn3)nc3scc(-c4ccccc4)c23)cc1 [Example 1.5, N-Benzyl-5-phenyl-2-(pyridin-2-yl)thieno[2,3-d]pyrimidin-4-amine]
IC50 (human ENPP1): > 20 µM | IC50 (ENPP3): > 20 µM

NS(=O)(=O)c1ccc(CNc2nc(-c3ccccn3)nc3scc(-c4ccccc4)c23)cc1 [Example 1.6, 4-(((5-Phenyl-2-(pyridin-2-yl)thieno[2,3-d]pyrimidin-4-yl)amino)methyl)benzenesulfonamide]
IC50 (human ENPP1): < 0.1 µM | IC50 (ENPP3): < 0.1 µM

Cc1ccc(CNc2nc(-c3ccccn3)nc3scc(-c4ccccc4)c23)cc1 [Example 1.7, (4-Methyl-benzyl)-(5-phenyl-2-pyridin-2-yl-thieno[2,3-d]pyrimidin-4-yl)-amine]
IC50 (human ENPP1): > 20 µM | IC50 (ENPP3): > 20 µM

Fc1ccccc1CNc1nc(-c2ccccn2)nc2scc(-c3ccccc3)c12 [Example 1.8, (2-Fluoro-benzyl)-(5-phenyl-2-pyridin-2-yl-thieno[2,3-d]pyrimidin-4-yl)-amine]
IC50 (human ENPP1): > 20 µM | IC50 (ENPP3): > 20 µM

Fc1cccc(CNc2nc(-c3ccccn3)nc3scc(-c4ccccc4)c23)c1 [Example 1.9, (3-Fluoro-benzyl)-(5-phenyl-2-pyridin-2-yl-thieno[2,3-d]pyrimidin-4-yl)-amine]
IC50 (human ENPP1): > 20 µM | IC50 (ENPP3): > 20 µM

Clc1ccc(CNc2nc(-c3ccccn3)nc3scc(-c4ccccc4)c23)cc1 [Example 1.10, (4-Chloro-benzyl)-(5-phenyl-2-pyridin-2-yl-thieno[2,3-d]pyrimidin-4-yl)-amine]
IC50 (human ENPP1): > 20 µM | IC50 (ENPP3): > 20 µM

N#Cc1ccc(CNc2nc(-c3ccccn3)nc3scc(-c4ccccc4)c23)cc1 [Example 1.11, 4-[(5-Phenyl-2-pyridin-2-yl-thieno[2,3-d]pyrimidin-4-ylamino)-methyl]-benzonitrile]
IC50 (human ENPP1): > 20 µM | IC50 (ENPP3): > 20 µM

NS(=O)(=O)c1ccc(CNc2nc(-c3ccccn3)nc3scc(-c4ccccc4)c23)cc1F [Example 1.13, 2-Fluoro-4-(((5-phenyl-2-(pyridin-2-yl)thieno[2,3-d]pyrimidin-4-yl)amino)methyl)benzenesulfonamide]
IC50 (human ENPP1): < 0.1 µM | IC50 (ENPP3): 0.1 to 1 µM

NS(=O)(=O)c1ccc(CNc2nc(-c3ccccn3)nc3scc(-c4ccccc4)c23)cc1C(F)(F)F [Example 1.14, 4-(((5-Phenyl-2-(pyridin-2-yl)thieno[2,3-d]pyrimidin-4-yl)amino)methyl)-2-(trifluoromethyl)benzenesulfonamide]
IC50 (human ENPP1): < 0.1 µM | IC50 (ENPP3): 0.1 to 1 µM

Cc1cc(S(N)(=O)=O)ccc1CNc1nc(-c2ccccn2)nc2scc(-c3ccccc3)c12 [Example 1.15, 3-Methyl-4-(((5-phenyl-2-(pyridin-2-yl)thieno[2,3-d]pyrimidin-4-yl)amino)methyl)-benzenesulfonamide]
IC50 (human ENPP1): 0.1 to 1 µM | IC50 (ENPP3): 0.1 to 1 µM

COc1cc(CNc2nc(-c3ccccn3)nc3scc(-c4ccccc4)c23)ccc1S(N)(=O)=O [Example 1.16, 2-Methoxy-4-(((5-phenyl-2-(pyridin-2-yl)thieno[2,3-d]pyrimidin-4-yl)amino)methyl)benzenesulfonamide]
IC50 (human ENPP1): 0.1 to 1 µM | IC50 (ENPP3): 1 to 20 µM

COc1cc(S(N)(=O)=O)ccc1CNc1nc(-c2ccccn2)nc2scc(-c3ccccc3)c12 [Example 1.17, 3-Methoxy-4-(((5-phenyl-2-(pyridin-2-yl)thieno[2,3-d]pyrimidin-4-yl)amino)methyl)-benzenesulfonamide]
IC50 (human ENPP1): < 0.1 µM | IC50 (ENPP3): 1 to 20 µM

NS(=O)(=O)c1ccc(CNc2nc(-c3ccccn3)nc3scc(-c4ccccc4)c23)cc1Cl [Example 1.18, 2-Chloro-4-(((5-phenyl-2-(pyridin-2-yl)thieno[2,3-d]pyrimidin-4-yl)amino)methyl)-benzenesulfonamide]
IC50 (human ENPP1): < 0.1 µM | IC50 (ENPP3): 0.1 to 1 µM

Cc1cc(CNc2nc(-c3ccccn3)nc3scc(-c4ccccc4)c23)ccc1S(N)(=O)=O [Example 1.19, 2-Methyl-4-(((5-phenyl-2-(pyridin-2-yl)thieno[2,3-d]pyrimidin-4-yl)amino)methyl)-benzenesulfonamide]
IC50 (human ENPP1): < 0.1 µM | IC50 (ENPP3): 0.1 to 1 µM

NS(=O)(=O)c1ccc(CNc2nc(-c3ccccn3)nc3scc(-c4ccncc4)c23)cc1 [Example 1.20, 4-(((2-(Pyridin-2-yl)-5-(pyridin-4-yl)thieno[2,3-d]pyrimidin-4-yl)amino)methyl)-benzenesulfonamide]
IC50 (human ENPP1): 1 to 20 µM | IC50 (ENPP3): > 20 µM

NS(=O)(=O)c1ccc(CNc2nc(-c3ccccn3)nc3scc(-c4ccccc4)c23)c(Cl)c1 [Example 1.21, 3-Chloro-4-(((5-phenyl-2-(pyridin-2-yl)thieno[2,3-d]pyrimidin-4-yl)amino)methyl)-benzenesulfonamide]
IC50 (human ENPP1): < 0.1 µM | IC50 (ENPP3): 0.1 to 1 µM

Cc1csc2c(N3CCC(NCC4CC4c4ccncc4)CC3)nc(Cl)nc12 (stereo not drawn) [Example 3.80, 1-(2-Chloro-7-methylthieno[3,2-d]pyrimidin-4-yl)-N-((2-(pyridin-4-yl)cyclopropyl)methyl)piperidin-4-amine]
IC50 (human ENPP1): 1 to 20 µM

Cc1csc2c(N3CCC(NCC4CC4c4ccncc4)CC3)ncnc12 (stereo not drawn) [Example 3.81, 1-(7-Methylthieno[3,2-d]pyrimidin-4-yl)-N-((2-(pyridin-4-yl)cyclopropyl)methyl)piperidin-4-amine]
IC50 (human ENPP1): 0.1 to 1 µM
